# Laboratory results published in patent publication US20220105051A1, “COMPOUNDS FOR INCREASING MHC-I EXPRESSION AND MODULATING HISTONE DEACETYLASE ACTIVITY” (Cava Healthcare Inc., priority 2019, published 2022).
# How the values were obtained:
# [1] = system: TAP, MHC class I, and HDACs 8 and 10; test: mRNA expression in A9 cells (RT-PCR); type: cell-based, murine; conditions: 0.064 μmol
# From the text: (§1) Methods primarily used: Fluorescence Activated Cell Sorting (FACS), western blot, RealTime-PCR (RT-PCR), Proteome Profiler Mouse Cytokine Array Kit (Panel A).
# [2] = system: A9 cells; test: Proteome Profiler Mouse XL cytokine array on A9 cells; type: cell-based, murine; conditions: 0.014 mg/ml (0.064 umol) vs DMSO
# Experimental: as §1
# Upon addition of 0.014 mg/ml (0.064 umol) of Curcuphenol, there was a change in the cytokine production of A9 cells, relative to that of cells treated with only vehicle DMSO. This treatment was done in 2 mL of DMEM media, at an initial seeding density of 1×10^6 A9 cells, and treatment with Curcuphenol in DMSO vehicle or DMSO vehicle was done 24 hours after seeding A9 cells. A9 cells are murine metastatic epithelial carcinoma cells. Cytokine change was seen using the Proteome Profiler Mouse XL cytokine array (R&D Systems, ARY028).
smiles,measurement,setting,value
"CC(C)=CCC[C@H](C)c1ccc(C)cc1O [Curcuphenol, curcuphenol]",mRNA expression of HDAC 8,[1],increased mRNA expression
same,mRNA expression of HDAC 10,[1],increased mRNA expression
same,mRNA expression of MHC class I,[1],increased mRNA expression
same,mRNA expression of TAP,[1],increased mRNA expression
same,Adiponectin/Acrp30 production,[2],Decrease
same,Amphiregulin production,[2],Decrease
same,Angiopoietin-1 production,[2],Decrease
same,Angiopoietin-2 production,[2],Increase
same,Angiopoietin-like 3 production,[2],Increase
same,CCL2/JE/MCP-1 production,[2],Decrease
same,CCL5/RANTES production,[2],Decrease
same,CCL6/C10 production,[2],Decrease
same,CCL11/Eotaxin production,[2],Decrease
same,CCL12/MCP-5 production,[2],Increase
same,CCL17/TARC production,[2],Decrease
same,CCL19/MIP-3beta production,[2],Increase
same,CCL22/MDC production,[2],Decrease
same,CD40/TNFRSF5 production,[2],Increase
same,CD160 production,[2],Decrease
same,CX3CL1/Fractalkine production,[2],Increase
same,CXCL9/MIG production,[2],Decrease
same,CXCL10/IP-10 production,[2],Decrease
same,CXCL11/I-TAC production,[2],Decrease
same,CXCL13/BLC/BCA-1 production,[2],Increase
same,CXCL16 production,[2],Increase
same,Chemerin production,[2],Decrease
same,Coagulation Factor III/Tissue Factor production,[2],Increase
same,Cystatin C production,[2],Increase
same,DGF-BB production,[2],Increase
same,E-Selectin/CD62-E production,[2],Decrease
same,Endostatin production,[2],Decrease
same,FGF-21 production,[2],Increase
same,Flt-3 Ligand production,[2],Decrease
same,G-CSF production,[2],Increase
same,GDF-15 production,[2],Increase
same,Gas 6 production,[2],Increase
same,IFN-gamma production,[2],Increase
same,IGFBP-2 production,[2],Decrease
same,IGFBP-3 production,[2],Decrease
same,IGFBP-6 production,[2],Decrease
same,IL-1alpha/IL-1F1 production,[2],Increase
same,IL-1beta/IL-1F2 production,[2],Increase
same,IL-1ra/IL-1F3 production,[2],Increase
same,IL-6 production,[2],Decrease
same,IL-7 production,[2],Decrease
same,IL-10 production,[2],Decrease
same,IL-11 production,[2],Decrease
same,IL-12 p40 production,[2],Decrease
same,IL-13 production,[2],Increase
same,IL-15 production,[2],Increase
same,IL-28A/B production,[2],Increase
same,IL-33 production,[2],Increase
same,LIX production,[2],Increase
same,Leptin production,[2],No change
same,M-CSF production,[2],Decrease
same,MMP-2 production,[2],Decrease
same,MMP-3 production,[2],Decrease
same,Myeloperoxidase production,[2],Increase
same,Osteopontin (OPN) production,[2],Increase
same,P-Selectin/CD62P production,[2],Decrease
same,Pentraxin 2/SAP production,[2],Decrease
same,Pentraxin 3/TSG-14 production,[2],Increase
same,Periostin/OSF-2 production,[2],No change
same,Pref-1/DLK-1/FA1 production,[2],Decrease
same,Proliferin production,[2],Increase
same,Proprotein Convertase 9/PCSK9 production,[2],No change
same,Serpin E1/PAI-1 production,[2],Increase
same,Serpin F1/PEDF production,[2],Increase
same,TIM-1/KIM-1/HAVCR production,[2],Increase
same,TNF-alpha production,[2],Decrease
same,VCAM-1/CD106 production,[2],No change
same,VEGF production,[2],Increase
same,WISP-1/CCN4 production,[2],Decrease
